Laboratory results taken from patent US10988524B2, “Modified relaxin B chain peptides and their therapeutic use” (priority 2018, dated 2021).
Non-standard residues stand in square brackets, D forms with d. Residues, ends and D or L forms follow the SMILES beside them. 1Nal = N[C@@H](Cc1cccc2ccccc12)C(=O)O; Nle = CCCC[C@H](N)C(=O)O; Aib = CC(C)(N)C(=O)O

target: T1, RXFP1 (Homo sapiens, UniProt Q9HBX9); assay: OVCAR5 cAMP assay (RXFP1 agonist activity, HTRF); settings: OVCAR-5, read-out: cAMP assay in OVCAR 5 cells Emax, maximal intracellular cAMP relative to H2-relaxin in the same test occasion
T1 sequence (Q9HBX9 1-757): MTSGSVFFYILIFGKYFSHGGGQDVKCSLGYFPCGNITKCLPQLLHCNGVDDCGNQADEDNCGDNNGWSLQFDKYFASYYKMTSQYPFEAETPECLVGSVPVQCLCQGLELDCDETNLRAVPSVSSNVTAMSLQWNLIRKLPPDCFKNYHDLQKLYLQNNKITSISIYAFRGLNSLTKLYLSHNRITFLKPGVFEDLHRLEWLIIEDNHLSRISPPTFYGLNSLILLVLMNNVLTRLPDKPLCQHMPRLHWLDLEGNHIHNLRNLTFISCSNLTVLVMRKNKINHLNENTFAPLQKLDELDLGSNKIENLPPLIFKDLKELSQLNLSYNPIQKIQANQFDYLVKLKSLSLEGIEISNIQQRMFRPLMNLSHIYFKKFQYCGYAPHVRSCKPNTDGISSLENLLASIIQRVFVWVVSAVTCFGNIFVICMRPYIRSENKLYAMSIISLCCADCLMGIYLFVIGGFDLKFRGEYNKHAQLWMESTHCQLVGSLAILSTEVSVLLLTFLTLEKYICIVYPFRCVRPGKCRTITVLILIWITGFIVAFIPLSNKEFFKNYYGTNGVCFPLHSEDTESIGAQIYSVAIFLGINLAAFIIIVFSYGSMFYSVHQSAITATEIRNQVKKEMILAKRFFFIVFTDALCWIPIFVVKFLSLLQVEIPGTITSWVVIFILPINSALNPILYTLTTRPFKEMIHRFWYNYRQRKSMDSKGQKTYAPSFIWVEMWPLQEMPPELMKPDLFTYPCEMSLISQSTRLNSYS

Row | SMILES | Emax
1 | CC[C@H](C)[C@H](NC(=O)[C@H](CCC(N)=O)NC(=O)[C@H](C)NC(=O)[C@H](CCCNC(=N)N)NC(=O)[C@@H](NC(=O)[C@H](CCCCN)NC(=O)[C@H](CCC(=O)O)NC(=O)[C@H](CCCNC(=N)N)NC(=O)CNC(=O)[C@H](CCC(=O)O)NC(=O)[C@H](CC(C)C)NC(C)=O)C(C)C)C(=O)NC(C)(C)C(=O)NC(C)(C)C(=O)N[C@@H](CCC(=O)O)C(=O)NCC(=O)N[C@@H](CCSC)C(=O)N[C@@H](CO)C(=O)N[C@H](C(=O)N[C@@H](Cc1c[nH]c2ccccc12)C(=O)N[C@@H](CO)C(=O)NC(C)(C)C(=O)N[C@@H](CCCNC(=N)N)C(=O)N[C@@H](CCCCN)C(N)=O)[C@@H](C)O [compound 45] (Ac-LEGREKVRAQI[Aib][Aib]EGMSTWS[Aib]RK-NH2) | 98%
2 | CC[C@H](C)[C@H](NC(=O)[C@H](CCC(N)=O)NC(=O)[C@H](C)NC(=O)[C@H](CCCNC(=N)N)NC(=O)[C@@H](NC(=O)[C@H](CCCCN)NC(=O)[C@H](CCC(=O)O)NC(=O)[C@H](CCCNC(=N)N)NC(=O)CNC(=O)[C@H](CCC(=O)O)NC(=O)[C@H](CC(C)C)NC(C)=O)C(C)C)C(=O)NC(C)(C)C(=O)N[C@H](C(=O)N[C@@H](CCC(=O)O)C(=O)NCC(=O)N[C@@H](CCSC)C(=O)N[C@@H](CO)C(=O)N[C@@H](CCCCN)C(=O)N[C@@H](Cc1cccc2ccccc12)C(=O)N[C@@H](CO)C(=O)N[C@@H](CCCCN)C(=O)N[C@@H](CCCNC(=N)N)C(=O)N[C@@H](CCCCN)C(=O)N[C@@H](CCCCN)C(N)=O)[C@@H](C)CC [compound 9] (Ac-LEGREKVRAQI[Aib]IEGMSK[1Nal]SKRKK-NH2) | 100%
3 | CC[C@H](C)[C@H](NC(=O)C(C)(C)NC(=O)[C@H](C)NC(=O)[C@H](CCCNC(=N)N)NC(=O)[C@@H](NC(=O)[C@H](CCCCN)NC(=O)[C@H](CCC(=O)O)NC(=O)[C@H](CCCNC(=N)N)NC(=O)CNC(=O)[C@H](CCC(=O)O)NC(=O)[C@H](CC(C)C)NC(C)=O)C(C)C)C(=O)NC(C)(C)C(=O)NC(C)(C)C(=O)N[C@@H](CCC(=O)O)C(=O)NCC(=O)N[C@@H](CCSC)C(=O)N[C@@H](CO)C(=O)N[C@H](C(=O)N[C@@H](Cc1c[nH]c2ccccc12)C(=O)N[C@@H](CO)C(=O)NC(C)(C)C(=O)N[C@@H](CCCNC(=N)N)C(N)=O)[C@@H](C)O [compound 43] (Ac-LEGREKVRA[Aib]I[Aib][Aib]EGMSTWS[Aib]R-NH2) | 104%

Now from value to molecule:

Row | Emax | SMILES
4 | 97% | CCCC[C@H](NC(=O)CNC(=O)[C@H](CCC(=O)O)NC(=O)C(C)(C)NC(=O)C(C)(C)NC(=O)[C@@H](NC(=O)[C@H](CCC(N)=O)NC(=O)[C@H](C)NC(=O)[C@H](CCCNC(=N)N)NC(=O)[C@@H](NC(=O)[C@H](CCCCN)NC(=O)[C@H](CCC(=O)O)NC(=O)[C@H](CCCNC(=N)N)NC(=O)CNC(=O)[C@H](CCC(=O)O)NC(=O)[C@H](CC(C)C)NC(C)=O)C(C)C)[C@@H](C)CC)C(=O)N[C@@H](CO)C(=O)N[C@H](C(=O)N[C@@H](Cc1c[nH]c2ccccc12)C(=O)N[C@@H](CO)C(=O)N[C@@H](CCCCN)C(=O)N[C@@H](CCCNC(=N)N)C(=O)N[C@@H](CCCCN)C(=O)N[C@@H](CCCCN)C(N)=O)[C@@H](C)O [compound 13] (Ac-LEGREKVRAQI[Aib][Aib]EG[Nle]STWSKRKK-NH2)
5 | 105% | CCCC[C@H](NC(=O)CNC(=O)[C@H](CCC(=O)O)NC(=O)C(C)(C)NC(=O)C(C)(C)NC(=O)[C@@H](NC(=O)[C@H](CCC(N)=O)NC(=O)[C@H](CCCCNC(C)=O)NC(=O)[C@H](CCCNC(=N)N)NC(=O)[C@@H](NC(=O)[C@H](CCCCN)NC(=O)[C@H](CCC(=O)O)NC(=O)[C@H](CCCNC(=N)N)NC(=O)CNC(=O)[C@H](CCC(=O)O)NC(=O)[C@H](CC(C)C)NC(C)=O)C(C)C)[C@@H](C)CC)C(=O)N[C@@H](CO)C(=O)N[C@H](C(=O)N[C@@H](Cc1c[nH]c2ccccc12)C(=O)N[C@@H](CO)C(=O)NC(C)(C)C(=O)N[C@@H](CCCNC(=N)N)C(=O)N[C@@H](CCCCN)C(=O)N[C@@H](CCCCN)C(N)=O)[C@@H](C)O [compound 33] (Ac-LEGREKVRK(Ac)QI[Aib][Aib]EG[Nle]STWS[Aib]RKK-NH2)
